Here are results for 5 molecules from patent US10301298B2, “Methods, compounds, and compositions for the treatment of angiotensin-related diseases” (University of Southern California, priority 2013, dated 2019).

Entries after “also recorded” stand apart in the source; their conditions may differ.

The target in test [1] is T1, Mas (Homo sapiens, UniProt P04201).
T1 construct: expressed in transfected cells
T1 sequence (P04201 1-325): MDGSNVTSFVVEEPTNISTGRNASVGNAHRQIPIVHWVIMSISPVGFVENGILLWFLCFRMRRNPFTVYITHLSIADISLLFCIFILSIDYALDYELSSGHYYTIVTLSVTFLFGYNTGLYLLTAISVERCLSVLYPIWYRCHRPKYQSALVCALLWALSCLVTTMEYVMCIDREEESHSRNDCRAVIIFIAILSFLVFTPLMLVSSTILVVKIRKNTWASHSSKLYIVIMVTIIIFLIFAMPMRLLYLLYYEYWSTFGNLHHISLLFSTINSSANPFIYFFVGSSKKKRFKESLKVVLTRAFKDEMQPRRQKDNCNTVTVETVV
Nature of the test: Competition binding assay, displacement of fluorescent Ang(1-7) from Mas-transfected CHO cells. Details: concentration or dose not given beside the values. Conditions: CHO cells transfected with Human mas1, on ice. As to the method: CHO cells stably transfected with recombinant Human mas1 proto-oncogen driven by the human cytomegalovirus were grown to 80% confluency. The cells were detached with trypsin and harvested by centrifugation. Cells were washed three times in progressively colder buffers. The final number of cells per assay was 5×10^5. All subsequent steps were performed on ice. Test compound was added to the cells for 10 minutes prior to addition of fluorescently labeled A(1-7). After 10 minutes further incubation, the cells were washed to remove unbound A(1-7) and the fluorescence bound was read at an excitation of 490 nm and an emission of 520 nm.

The subject of a further test is db/db mice. Nature of the test: Bone marrow cell counts and progenitor colonies in db/db mice. Format: in vivo. Conditions: 500 mcg/kg/day subcutaneously, 14 days. As to the method: The femurs and tibia were collected from db/db mice treated 500 mcg/kg/day Ang(1-7) or Compound 7 subcutaneously for 14 days were euphanized and the bone marrow were collected by flushing with PBS containing 2% fetal calf serum. After collection of the bone marrow, the red blood cells will be lysed with a hypotonic solution (described above), mixed with 0.04% trypan blue and the number of nucleated cells was assessed by hematocytometer under light microscopy. Aliquots of cells were then resuspended at 1×10^6 cells/ml (GM and GEMM, bone marrow), 1.5×10^6 cells/ml (BFU-E, bone marrow). One hundred μ1 of each suspension was added to 900 μl of semisolid medium containing 0.9% methyl cellulose in Iscove's MDM, 15% fetal calf serum, 1% bovine serum albumin, 10 μg/ml bovine pancreatic insulin, 200 μg/ml human transferrin, 10^−4 M 2-mercaptoethanol, 2 mM glutamine, 10 ng/ml recombinant murine interleukin 3, 10 ng/ml recombinant human interleukin 6, 50 ng/ml recombinant murine stem cell factor and 3 units/ml erthropoietin. This mixture was then added to duplicate wells of a 24 well plate. The cultures were then placed at 37° C. in a humidified atmosphere of 5% CO2 in air. At day 14, the number of progenitor colonies formed was enumerated under phase contrast microscopy.
The bone marrow cells were also cultured to assess the number of MSCs by a CFU—F assay. 2.5×10^5 cells/ml, 2 ml per well, were diluted into Mesencult medium (Stem Cell Technologies, Vancouver, BC, Canada) and 2 mL were placed in each well of a 24 well plate. The cultures were then incubated at 37° C. in a humidified atmosphere of 5% CO2 in air. At days 2, 5 and 8, the number of progenitor colonies formed was enumerated under phase contrast microscopy.

In test [2] the target is T1, Mas. Nature of the test: NO production in CHO cells stably transfected with Human Mas1. It is filed as cell-based. As to the method:
Transfected cells that express Mas were used to identify and evaluate provided compounds as Mas agonists, by promoting NO production as readouts. CHO cells stably transfected with pTEJ-8 vector containing recombinant Human Mas1 clone were grown to confluency. Cells were washed three times for 30/5/5 minutes with prewarmed (37° C.) Tyrodes Salts (supplemented with 1 g/L NaHCO3, and 1.9 g/L d-Glucose). Cells were incubated for a short time in 700 μL of supplemented Tyrodes salts containing 10 μM PTIO, 100 μM DAN, and 1 mM L-arginine. When using antagonist for competition assays, cells were exposed to the inhibitor at 1×10^−7 M for 15 minutes, before additional drugs are added.
Chemicals (10^−8 to 10^−6 M or the maximum concentration found not to cause cytotoxicity) to be screened were added to the cell medium and the plates were agitated for 1 minute before being placed into the incubator for 2 hours. After 2 hours, cellular supernatants were transferred to opaque 96 well plates, and the fluorescence intensity was recorded at an ex/em of 380/425.

As to `CCCCOC(=O)NS(=O)(=O)c1ccc(OC(F)(F)F)cc1-c1ccc(CN2CCN(C)C2=O)cn1` [Compound 8, butyl (2-(5-((3-methyl-2-oxoimidazolidin-1-yl)methyl)pyridin-2-yl)-4-(trifluoromethoxy)phenyl) sulfonylcarbamate], the “% Displacement” value at Mas [1] turned out to be 18.6%.
On to “Asp-Arg-Val-Tyr-Ile-His-Pro [Ang(1-7), reference compound]”, for which, in the test with db/db mice, the bone marrow counts entry was “increase bone marrow counts; also recorded: increased the bone marrow counts”. Besides, the “ability to enhance NO production (fluorescence)” value with Mas [2] (Mas-transfected CHO cells) was “concentration dependent increase in NO”. Besides, the “NO production with co-administration of A779” value with Mas [2] (with A779, selective Mas antagonist, 1×10^−7 M) was “back to baseline fluorescence”.
For the molecule `CCCCOC(=O)NS(=O)(=O)c1ccc(OC(F)(F)F)cc1-c1ncc(Cn2ccnc2)s1` [Compound 11, butyl (2-(5-((1H-imidazol-1-yl)methyl)thiazol-2-yl)-4-(trifluoromethoxy)phenyl)sulfonylcarbamate], the “% Displacement” value at Mas [1] is given as 23.0%.
As for `CCCCOC(=O)NS(=O)(=O)c1ccc(OC(F)(F)F)cc1-c1ccc(CN2CCN(C)CC2)cn1` [Compound 10, butyl (2-(5-((4-methylpiperazin-1-yl)methyl)pyridin-2-yl)-4-(trifluoromethoxy)phenyl)sulfonylcarbamate], the “% Displacement” value on Mas [1] worked out at 22.0%.
Same read-out and setting: the value for `CCCCOC(=O)NS(=O)(=O)c1ccc(OC(F)(F)F)cc1-c1ccc(CN2CCOCC2)cn1` [Compound 9, butyl (2-(5-(morpholinomethyl)pyridin-2-yl)-4-(trifluoromethoxy)phenyl)sulfonyl-carbamate] was 17.3%.
